Measured values as given in patent US5310665A (Gist-brocades, N.V., priority 1990, dated 1994).

Experiments:
[1] = target: T1, Actinoplanes missouriensis glucose isomerase, wild type, SEQ ID NO: 1 (Actinoplanes missouriensis, UniProt P12851); experiment: Steady-state kinetics of glucose isomerase (coupled sorbitol dehydrogenase assay for xylose; cysteine-carbazole or sorbitol dehydrogenase method for glucose); format: biochemical; settings: 60° C., 10 mM Mg2+, pH 7.5
T1 construct: made in house; host or cells: E. coli K514

[2] = target: T2, Actinoplanes missouriensis glucose isomerase variant H290N (Actinoplanes missouriensis, UniProt P12851, H290N); experiment: Steady-state kinetics of glucose isomerase mutant; format: biochemical; settings: 60° C., 10 mM Mg2+, pH 7.5
T2 construct: made in house; host or cells: E. coli K514
Procedure: (§1) Alternatively, the D-fructose produced during the isomerization reaction can be determined enzymatically using sorbitol dehydrogenase and NADH.
(§2) As a measure of specificity the quotient is Vmax /Km is sometimes used (Wells et al., ibid). […] These temperatures are chosen for practical reasons.
(§3) Activities were measured on purified enzyme. The coupled sorbitol dehydrogenase assay was used for xylose, the cysteine-carbazole or discontinuous sorbitol dehydrogenase method was used for glucose.

[3] = target: T3, Actinoplanes missouriensis glucose isomerase variant M88SH290N (M88S/H290N) (Actinoplanes missouriensis, UniProt P12851, H290N/M88S); experiment: Steady-state kinetics of glucose isomerase mutant; format: biochemical; settings: 60° C., 10 mM Mg2+, pH 7.5
T3 construct: made in house; host or cells: E. coli K514
Procedure: as §1, §2, §3

[4] = tested on: naturally occurring glucose isomerases (various microorganisms); settings: range over microorganisms; cited from earlier work

T1 sequence (P12851 2-394 limits assumed): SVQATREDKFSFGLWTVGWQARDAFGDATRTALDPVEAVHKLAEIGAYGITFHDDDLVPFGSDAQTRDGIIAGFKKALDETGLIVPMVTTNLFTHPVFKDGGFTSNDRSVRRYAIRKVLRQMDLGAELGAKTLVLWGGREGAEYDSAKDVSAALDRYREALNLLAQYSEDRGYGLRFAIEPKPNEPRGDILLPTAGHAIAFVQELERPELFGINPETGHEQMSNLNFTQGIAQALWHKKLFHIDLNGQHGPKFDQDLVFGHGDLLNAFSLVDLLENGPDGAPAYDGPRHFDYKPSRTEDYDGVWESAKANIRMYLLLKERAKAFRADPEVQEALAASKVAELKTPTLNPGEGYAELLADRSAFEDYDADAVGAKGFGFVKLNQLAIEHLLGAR
T2 sequence (P12851 2-394 H290N limits assumed): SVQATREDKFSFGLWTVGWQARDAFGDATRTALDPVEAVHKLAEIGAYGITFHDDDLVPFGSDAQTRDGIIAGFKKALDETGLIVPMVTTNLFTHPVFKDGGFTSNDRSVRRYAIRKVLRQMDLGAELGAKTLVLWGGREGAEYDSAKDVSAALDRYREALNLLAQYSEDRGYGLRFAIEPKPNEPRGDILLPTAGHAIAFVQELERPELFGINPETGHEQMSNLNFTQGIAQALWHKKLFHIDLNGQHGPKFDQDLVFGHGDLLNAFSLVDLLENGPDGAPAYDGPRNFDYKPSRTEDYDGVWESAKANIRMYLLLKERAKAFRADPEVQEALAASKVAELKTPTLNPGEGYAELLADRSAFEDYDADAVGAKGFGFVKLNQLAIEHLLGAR
T3 sequence (P12851 2-394 M88S/H290N limits assumed): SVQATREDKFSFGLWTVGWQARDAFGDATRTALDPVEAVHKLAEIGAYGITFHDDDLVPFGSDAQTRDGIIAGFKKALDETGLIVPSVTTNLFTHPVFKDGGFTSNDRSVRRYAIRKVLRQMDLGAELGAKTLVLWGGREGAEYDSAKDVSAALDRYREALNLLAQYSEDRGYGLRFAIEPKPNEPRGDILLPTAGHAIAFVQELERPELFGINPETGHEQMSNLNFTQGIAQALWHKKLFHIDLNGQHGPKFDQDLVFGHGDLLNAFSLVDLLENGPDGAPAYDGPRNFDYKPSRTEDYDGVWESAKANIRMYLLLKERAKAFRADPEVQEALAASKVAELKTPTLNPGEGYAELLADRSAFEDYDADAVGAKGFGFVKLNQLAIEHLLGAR

Row | SMILES | Vmax gl [1] | Vmax gl [2] | Vmax gl [3] | Km [4]
1 | O=C[C@H](O)[C@@H](O)[C@H](O)[C@H](O)CO [glucose] | 34.800 µmol/min/mg | 41.800 µmol/min/mg | 49.770 µmol/min/mg | 
2 | O=C[C@H](O)[C@@H](O)[C@H](O)CO [xylose] |  |  |  | 5 to 93 mM
